Measurements as given in US10287269B2, “Pyrazolyl pyrimidinone compounds as PDE2 inhibitors” (Merck Sharp & Dohme Corp., priority 2015, dated 2019).
Like-named read-outs stand apart in the source and are kept apart here.

Target: T1, human PDE2A1 (Homo sapiens, UniProt O00408)
T1 construct: GST; purchased BPS Bioscience (San Diego, Calif.) 60020; host or cells: insect cells
Assay: PDE2 IMAP FP inhibition assay, human enzyme (PDE selectivity panel format)
Assay type: biochemical
How it was run: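 GST-tagged human PDE2A1 from insect cells, run at room temperature in 10 mM Tris pH 7.2, 10 mM MgCl2, 1 mM DTT with 50 nM FAM-cAMP plus 1000 nM cGMP for 60 min. IMAP fluorescence polarization read-out; apparent Ki derived using apparent KM 10,000 nM.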

[1] = Lab B, read-out: Human PDE2 Ki (nM) Lab B
[2] = Lab A, read-out: Human PDE2 Ki (nM) Lab A

T1 sequence (O00408 1-920 isoform O00408-2): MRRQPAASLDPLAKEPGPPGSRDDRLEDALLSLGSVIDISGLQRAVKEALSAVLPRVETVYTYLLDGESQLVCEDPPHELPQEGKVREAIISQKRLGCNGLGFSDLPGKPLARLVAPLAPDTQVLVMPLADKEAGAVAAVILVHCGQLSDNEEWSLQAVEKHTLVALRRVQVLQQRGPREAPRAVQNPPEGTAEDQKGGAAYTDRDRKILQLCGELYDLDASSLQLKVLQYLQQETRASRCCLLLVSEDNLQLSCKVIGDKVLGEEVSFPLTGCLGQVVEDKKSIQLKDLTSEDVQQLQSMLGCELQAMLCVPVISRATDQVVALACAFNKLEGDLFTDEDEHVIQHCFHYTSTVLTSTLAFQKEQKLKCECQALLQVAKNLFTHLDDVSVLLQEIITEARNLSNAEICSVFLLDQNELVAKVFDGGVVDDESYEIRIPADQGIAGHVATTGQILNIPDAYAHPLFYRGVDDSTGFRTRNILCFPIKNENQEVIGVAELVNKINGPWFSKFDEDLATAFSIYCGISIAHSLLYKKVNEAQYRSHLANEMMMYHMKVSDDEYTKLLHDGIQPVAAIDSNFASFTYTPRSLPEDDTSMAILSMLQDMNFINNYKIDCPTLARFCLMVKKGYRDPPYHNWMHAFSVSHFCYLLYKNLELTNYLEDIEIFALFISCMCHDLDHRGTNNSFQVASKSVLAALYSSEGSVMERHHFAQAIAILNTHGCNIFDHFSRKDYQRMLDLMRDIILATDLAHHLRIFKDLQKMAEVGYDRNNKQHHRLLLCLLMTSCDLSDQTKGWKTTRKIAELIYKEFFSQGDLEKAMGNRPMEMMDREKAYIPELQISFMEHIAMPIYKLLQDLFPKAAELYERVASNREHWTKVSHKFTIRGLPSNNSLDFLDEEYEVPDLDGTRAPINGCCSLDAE

| Compound | Ki [1] [nM] | Ki [2] [nM] |
| --- | --- | --- |
| Cc1nc(-c2ccn(C(C)c3ccc(C(F)(F)F)cc3)n2)cc(=O)[nH]1 (single isomer, unassigned) [Example 77, (R)- or (S)-2-methyl-6-(1-(1-(4-(trifluoromethyl)phenyl)ethyl)-1H-pyrazol-3-yl)pyrimidin-4(3H)-one] | 441 | – |
| Cc1ccc(C(C)n2cc(-c3cc(=O)[nH]c(C)n3)cn2)c(Cl)c1 (single isomer, unassigned) [Example 148, (R)- or (S)-6-(1-(1-(2-chloro-4-methylphenyl)ethyl)-1H-pyrazol-4-yl)-2-methylpyrimidin-4(3H)-one] | – | 61 |
| COc1ccc(Cc2nc(-c3cnn(C(C)c4ccc(C(F)(F)F)cc4F)c3)cc(=O)[nH]2)cc1OC (single isomer, unassigned) [Example 67] | 0.1 | 0.2 |
| COc1ccc(Cc2nc(-c3cnn(C(C)c4ccc(C(F)(F)F)cc4F)c3)cc(=O)[nH]2)cc1F (single isomer, unassigned) [Example 147, (S)- or (R)-6-(1-(1-(2-fluoro-4-(trifluoromethyl)phenyl)ethyl)-1H-pyrazol-4-yl)-2-(3-fluoro-4-methoxybenzyl)pyrimidin-4(3H)-one] | – | 3.3 |
| Cc1nc(-c2cnn(C(C)c3ccc(C(F)(F)F)cc3)c2C)cc(=O)[nH]1 (single isomer, unassigned) [Example 82, (S)- or (R)-2-methyl-6-(5-methyl-1-{(1R)-1-[4-(trifluoromethyl)phenyl]ethyl}-1H-pyrazol-4-yl)pyrimidin-4(3H)-one] | 184 | – |
| CCc1nc(-c2cnn(C(C)c3ccc(C(F)(F)F)cc3F)c2)cc(=O)[nH]1 (single isomer, unassigned) [Example 85, (R)- or (S)-2-ethyl-6-(1-(1-(2-fluoro-4-(trifluoromethyl)phenyl)ethyl)-1H-pyrazol-4-yl)pyrimidin-4(3H)-one] | – | 10.4 |
| COc1ccc(Cc2nc(-c3cnn(C(C)c4ccc(C(F)(F)F)cc4F)c3)cc(=O)[nH]2)cc1OC (single isomer, unassigned) [Example 66, (R)- or (S)-2-(3,4-dimethoxybenzyl)-6-(1-(1-(2-fluoro-4-(trifluoromethyl)phenyl)ethyl)-1H-pyrazol-4-yl)pyrimidin-4(3H)-one] | 0.5 | – |
| Cc1nc(-n2cc([C@](C)(O)c3ccc(C(F)(F)F)cc3F)cn2)cc(=O)[nH]1 (single isomer, unassigned) [Example 16] | 47.1 | – |
| Cc1nc(-n2cc(C(C)c3ccc(C(F)(F)F)cc3F)cn2)cc(=O)[nH]1 (single isomer, unassigned) [Example 53, (S)- or (R)-6-(4-(1-(2-fluoro-4-(trifluoromethyl)phenyl)ethyl)-1H-pyrazol-1-yl)-2-methylpyrimidin-4(3H)-one] | 33.2 | – |
| COc1ccc(Cc2nc(-c3cnn(C(C)c4ccc(S(F)(F)(F)(F)F)cc4)c3)cc(=O)[nH]2)cc1OC (single isomer, unassigned) [Example 65, (S)- or (R)-2-(3,4-dimethoxybenzyl)-6-(1-(1-(4-(pentafluorosulfanyl)phenyl)ethyl)-1H-pyrazol-4-yl)pyrimidin-4(3H)-one 4(3H)-one] | 8.5 | 22 |
| Cc1nc(-n2cc(Cc3ccc(C(F)(F)F)cc3)cn2)cc(=O)[nH]1 [Example 48, 2-methyl-6-(4-(4-(trifluoromethyl)benzyl)-1H-pyrazol-1-yl)pyrimidin-4(3H)-one] | 219 | – |
| CCc1ccc(C(C)n2cc(-c3cc(=O)[nH]c(C)n3)cn2)c(F)c1 (single isomer, unassigned) [Example 101, (R)- or (S)-6-(1-(1-(4-ethyl-2-fluorophenyl)ethyl)-1H-pyrazol-4-yl)-2-methylpyrimidin-4(3H)-one] | – | 38.5 |
| Cc1nc(-n2cc(C(C)c3ccc(C4CC4)cc3)cn2)cc(=O)[nH]1 (centres unmarked) [Example 39, 6-(4-(1-(4-cyclopropylphenyl)ethyl)-1H-pyrazol-1-yl)-2-methylpyrimidin-4(3H)-one] | 35.3 | – |
| Cc1nc(-c2cnn(C(C)c3ccc(S(F)(F)(F)(F)F)cc3)c2)cc(=O)[nH]1 (single isomer, unassigned) [Example 62, (R)- or (S)-2-methyl-6-(1-(1-(4-(pentafluorosulfanyl)phenyl)ethyl)-1H-pyrazol-4-yl)pyrimidin-4(3H)-one] | 86.5 | – |
| Cc1nc(-c2cnn(C(C)c3ccc(OC(F)(F)F)cc3)c2)cc(=O)[nH]1 (single isomer, unassigned) [Example 127, (R)- or (S)-2-methyl-6-(1-(1-(4-(trifluoromethoxy)phenyl)ethyl)-1H-pyrazol-4-yl)pyrimidin-4(3H)-one] | 103 | – |
| Cc1nc(-n2cc(C(c3ccc(C(F)(F)F)cc3)C(C)C)cn2)cc(=O)[nH]1 (centres unmarked) [Example 130] | 87.6 | – |
| Cc1nc(-n2cc([C@]3(c4ccc(C(F)(F)F)cc4)CCCO3)cn2)cc(=O)[nH]1 (single isomer, unassigned) [Example 21] | 199 | – |
| CCC(c1ccc(C(F)(F)F)cc1F)n1cc(-c2cc(=O)[nH]c(C)n2)cn1 (centres unmarked) [Example 33, 6-(1-(1-(2-fluoro-4-(trifluoromethyl)phenyl)propyl)-1H-pyrazol-4-yl)-2-methylpyrimidin-4(3H)-one] | – | 32 |
| Cc1nc(-n2cc([C@]3(c4ccc(C(F)(F)F)cc4)CCCO3)cn2)cc(=O)[nH]1 (single isomer, unassigned) [Example 22] | 31.5 | – |
| CCCC(c1ccc(C(F)(F)F)cc1)n1cc(-c2cc(=O)[nH]c(C)n2)cn1 (centres unmarked) [Example 154, 2-methyl-6-(1-(1-(4-(trifluoromethyl)phenyl)butyl)-1H-pyrazol-4-yl)pynmidin-4(3H)-one] | 265 | – |
| COc1ccc(Cc2nc(-c3cnn(C(C)c4ccc(C(F)(F)F)cc4)c3)cc(=O)[nH]2)cc1OC (single isomer, unassigned) [Example 61, (S)- or (R)-2-(3,4-dimethoxybenzyl)-6-(1-(1-(4-(trifluoromethyl)phenyl)ethyl)-1H-pyrazol-4-yl)pyrimidin-4(3H)-one] | 0.9 | 2.4 |
| CC(c1ccc(C(F)(F)F)cc1F)n1cc(-c2cc(=O)[nH]c(C3CC3)n2)cn1 (centres unmarked) [Example 10] | – | 19.5 |
| Cc1nc(-c2cn(C(C)c3ccc(C(F)(F)F)cc3)nc2C)cc(=O)[nH]1 (centres unmarked) [Example 80, 2-methyl-6-(3-methyl-1-(1-(4-(trifluoromethyl)phenyl)ethyl)-1H-pyrazol-4-yl)pyrimidin-4(3H)-one] | 140 | – |
| COc1ccc(Cc2nc(-c3cnn(C(C)c4ccc(C(F)(F)F)cc4F)c3)cc(=O)[nH]2)cc1F (single isomer, unassigned) [Example 146, (R)- or (S)-6-(1-(1-(2-fluoro-4-(trifluoromethyl)phenyl)ethyl)-1H-pyrazol-4-yl)-2-(3-fluoro-4-methoxybenzyl)pyrimidin-4(3H)-one] | – | 31.2 |
| Cc1nc(-n2cc(C(C)c3ccc(C4(C)CC4)cc3)cn2)cc(=O)[nH]1 (centres unmarked) [Example 40, 2-methyl-6-(4-(1-(4-(1-methylcyclopropyl)phenyl)ethyl)-1H-pyrazol-1-yl)pyrimidin-4(3H)-one] | 197 | – |
| COc1cc(Cc2nc(-c3cnn(C(C)c4ccc(C(F)(F)F)cc4F)c3)cc(=O)[nH]2)ccc1F (single isomer, unassigned) [Example 142, (R)- or (S)-2-(4-fluoro-3-methoxybenzyl)-6-(1-(1-(2-fluoro-4-(trifluoromethyl)phenyl)ethyl)-1H-pyrazol-4-yl)pyrimidin-4(3H)-one] | – | 3.5 |
